SMILES strings stand for the structures. Counter-ions that a name gives are not always drawn.

In the test the target is TYK2 (Homo sapiens (Human), UniProt P29597). Description: JAK1, JAK2 and TYK2 Inhibition Assay Protocol (Example A): TYK2 kinase domain, Caliper LabChip peptide phosphorylation. Type of test: biochemical. To be noted: isolated TYK2 kinase domain, 1 nM enzyme, 25 μM ATP, Morrison tight binding model. Here is the method: The activity of the isolated JAK1, JAK2 or TYK2 kinase domain was measured by monitoring phosphorylation of a peptide derived from JAK3 (Val-Ala-Leu-Val-Asp-Gly-Tyr-Phe-Arg-Leu-Thr-Thr) fluorescently labeled on the N-terminus with 5-carboxyfluorescein using the Caliper LabChip technology (Caliper Life Sciences, Hopkinton, Mass.). […] Reactions were incubated at 22° C. in 384-well polypropylene microtiter plates for 30 minutes and then stopped by addition of 25 μL of an EDTA containing solution (100 mM Hepes pH 7.2, 0.015% Brij-35, 150 mM EDTA), resulting in a final EDTA concentration of 50 mM. After termination of the kinase reaction, the proportion of phosphorylated product was determined as a fraction of total peptide substrate using the Caliper LabChip 3000 according to the manufacturer's specifications. Ki values were then determined using the Morrison tight binding model. Morrison, J. F., Biochim. Biophys. Acta. 185:269-296 (1969); William, J. W. and Morrison, J. F., Meth. Enzymol., 63:437-467 (1979).
Sequence of TYK2 (P29597 897-1176): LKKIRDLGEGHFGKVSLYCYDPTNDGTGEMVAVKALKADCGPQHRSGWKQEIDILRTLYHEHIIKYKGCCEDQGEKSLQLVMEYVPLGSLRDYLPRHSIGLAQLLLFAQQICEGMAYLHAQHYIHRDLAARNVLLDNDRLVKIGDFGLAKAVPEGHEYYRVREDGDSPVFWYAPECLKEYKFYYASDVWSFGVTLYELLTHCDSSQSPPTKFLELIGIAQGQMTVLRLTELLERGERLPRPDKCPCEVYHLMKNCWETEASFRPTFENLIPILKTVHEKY
With `O=C(Nc1nccc2nc(-c3c(Cl)cccc3Cl)sc12)C1CC1` [Example 2, N-(2-(2,6-Dichlorophenyl)thiazolo[5,4-c]pyridin-4-yl)cyclopropanecarboxamide], the inhibitory constant (Ki) (as a rule, a measure of affinity in units of concentration, obtained from inhibition or displacement) is 0.5 nM. This lies in the sub-nanomolar range.
For `O=C(CO)Nc1nccc2nc(-c3c(Cl)cccc3Cl)sc12` [Example 10, N-(2-(2,6-Dichlorophenyl)thiazolo[5,4-c]pyridin-4-yl)-2-hydroxyacetamide] the value was 23 nM.
For `O=C(Nc1nccc2nc(-c3c(F)cccc3Cl)sc12)NC1CC1` [Example 16, 1-(2-(2-Chloro-6-fluorophenyl)thiazolo[5,4-c]pyridin-4-yl)-3-cyclopropylurea] the value was 1.4 nM; for `OCc1ccnc(Nc2nccc3nc(-c4c(Cl)cccc4Cl)sc23)c1` [Example 18, (2-(2-(2,6-dichlorophenyl)thiazolo[5,4-c]pyridin-4-ylamino)pyridin-4-yl)methanol], 0.3 nM.
Under `Cc1cc(Nc2nccc3nc(-c4c(Cl)cc(CO)cc4Cl)sc23)ncn1` [Example 22, {3,5-Dichloro-4-[4-(6-methyl-pyrimidin-4-ylamino)-thiazolo[5,4-c]pyridin-2-yl]-phenyl}-methanol] stands 1 nM.
On to `O=C(Nc1ncnc2nc(-c3c(Cl)cccc3Cl)sc12)C1CC1` [Example 24, N-(2-(2,6-dichlorophenyl)thiazolo[4,5-d]pyrimidin-7-yl)cyclopropanecarboxamide], for which the inhibition constant Ki stood at 6.2 nM.
For `Cc1cc(Nc2nccc3nc(-c4ccccc4Cl)sc23)nc(C)n1` [Example 56, 2-(2-chlorophenyl)-N-(2,6-dimethylpyrimidin-4-yl)thiazolo[5,4-c]pyridin-4-amine] the value was 8.6 nM; for `CCc1cc(Nc2nccc3nc(-c4c(Cl)cc(C(N)=O)cc4Cl)sc23)ncn1` [Example 129, 3,5-Dichloro-4-[4-(6-ethylpyrimidin-4-ylamino)thiazolo[5,4-c]pyridin-2-yl]-benzamide], 1.6 nM.
As for `Cc1cc(Nc2nccc3nc(-c4c(Cl)cc(C5CC5)cc4Cl)sc23)ncn1` [Example 138, [2-(2,6-Dichloro-4-cyclopropylphenyl)thiazolo[5,4-c]pyridin-4-yl]-(6-methylpyrimidin-4-yl)-amine], the Ki is 4.1 nM.
`N#Cc1cc(Cl)c(-c2nc3c(F)cnc(NC(=O)C4CC4)c3s2)c(Cl)c1` [Example 213, Cyclopropane-carboxylic acid [2-(2,6-dichloro-4-cyano-phenyl)-7-fluorothiazolo[5,4-c]pyridin-4-yl]-amide]: the inhibition constant Ki was determined as 1.5 nM.
`N#Cc1cnc(Nc2cc(N)ncn2)c2sc(-c3c(F)cccc3Cl)nc12` [Example 223, 4-(6-aminopyrimidin-4-ylamino)-2-(2-chloro-6-fluorophenyl) thiazolo[5,4-c] pyridine-7-carbonitrile] registered a Ki of 0.4 nM.
Under `N#Cc1cccc(F)c1-c1nc2c(C#N)cnc(Nc3cc(N)ncn3)c2s1` [Example 224, 4-(6-aminopyrimidin-4-ylamino)-2-(2-cyano-6-fluorophenyl) thiazolo[5,4-c] pyridine-7-carbonitrile] stands 0.3 nM; under `Cc1cc(Nc2nccc3nc(-c4c(C#N)cc(C#N)cc4C#N)sc23)nc(C)n1` [Example 227, 2-(4-(2,6-dimethylpyrimidin-4-ylamino)thiazolo[5,4-c]pyridin-2-yl)benzene-1,3,5-tricarbonitrile], 0.8 nM; under `Cc1nc(CO)cc(Nc2nccc3nc(-c4c(Cl)cccc4C#N)sc23)n1` [Example 236, 3-Chloro-2-[4-(6-hydroxy-methyl-2-methyl-pyrimidin-4-ylamino)-thiazolo[5,4-c]pyridin-2-yl]-benzonitrile hydrochloride salt], 0.5 nM.
